# Assay results published in patent US8304422B2, “Compositions and methods for inhibition of the JAK pathway” (Rigel Pharmaceuticals, Inc., priority 2007, dated 2012).
# Tested on: BaF3 V617F cells; UKE-1
# Assay: Proliferation Assay (Cell Titer-Glo; Example 7)
# Format: cell-based
# Settings: proliferation 72 hours, inhibit JAK2 activity, cell line (BaF3 V617F or UKE-1) not stated
# Method: BaF3 V617F cells are maintained and plated in RPMI with 10% FBS. Plating density for these cells is 1×10^5 cells/mL.
# UKE-1 are maintained and plated in Iscove's DMEM containing 10% FBS, 10% equine serum, 1% penicillin/streptomycin and 1 uM hydrocortisone. Plating density for these cells is 0.4×10^6 cells/mL
# The cells were resuspended in a corresponding medium at a required cell density (see above). 100μ of cell suspension was added to each well of a flat bottom 96 well white plate. The compound was serially diluted in DMSO from 5 mM in 3-fold dilutions, and then diluted 1:250 in the RPMI 1640 medium containing 5% FBS and pen/strep. 100 μL of resulting 2× compound solution was added per well in duplicate and the cells were allowed to proliferate for 72 hours at 37° C.
# Proliferation was measured using Cell Titer-Glo. The substrate was thawed and allowed to come to room temperature. After removal of top 100 μL of medium from each well, 100 μL of the premixed Cell Titer-Glo reagent was added to each well. The plates were mixed on an orbital shaker for three minutes to induce lysis and incubated at ambient temperature for an additional five minutes to allow the signal to equilibrate. The Luminescence was read on the Wallac Plate Reader.
# The results of the ability of the compounds of the invention to inhibit JAK2 activity, when tested in the above assay, are shown in the following Table XI wherein the level of activity (i.e., the IC50) for each compound is indicated in Table XI. The compound numbers in Table XI refers to the compounds disclosed herein as being prepared by the methods disclosed herein: […]
row,Molecule,IC50
1,"5-Bromo-N4-[3-(N-tert-butylsulfonyl)phenyl]-N2-[4-(4-methylpiperazine)-phenyl]-2,4-pyrimidinediamine [I-18]",832 nM
2,"5-Chloro-N2-(3,5-dimethyl-5-methoxyphenyl)-N4-[(4-(dimethylamino)sulfonylamino)methylphenyl]-2,4-pyrimidinediamine [II-90]",83.6 nM
3,"5-Chloro-N2-[3,4-dimethyl-4-(2-(4-morpholinyl)ethoxy)phenyl]-N4-[2-methyl-4-((N-cyclopropylamino)sulfonylamino)methylphenyl]-2,4-pyrimidinediamine [II-183]",142 nM
4,"5-Chloro-N2-[3,4-dimethyl-4-(2-(4-morpholinyl)ethoxy)phenyl]-N4-[4-((N-cyclopropylamino)sulfonylamino)methylphenyl]-2,4-pyrimidinediamine [II-170]",40.2 nM
5,"5-Chloro-N2-[3-methyl-4-(methyl-1-piperazinyl)phenyl]-N4-[1,2,3,4-tetrahydro-2-(ethylsulfonyl)-5-isoquinolinyl]-2,4-pyrimidinediamine [VI-2]",2800 nM
6,"5-Chloro-N4-[3,4-dihydro-1,1-dioxide-2H-1,2-benzothiazin-7-yl]-N2-[4-(N-methylpiperizin-4-yl)phenyl]-2,4-pyrimidinediamine [VII-2]",371 nM
7,"5-Chloro-N4-[3,4-dihydro-1,1-dioxide-2H-1,2-benzothiazin-7-yl]-N2-[4-(N-methylpiperizin-4-yl)phenyl]-2,4-pyrimidinediamine [VII-5]",13200 nM
8,"5-Chloro-N4-[3,4-dihydro-1,1-dioxide-2H-1,2-benzothiazin-7-yl]-N2-[5-methyl-4-(N-methylpiperizin-4-yl)pyridine-3-yl]-2,4-pyrimidinediamine [VII-4]",558 nM
9,"5-Chloro-N4-[3-(N-cyclopropylsulfonylamino)methylphenyl]-N2-[4-(N-methylpiperizin-4-yl)phenyl]-2,4-pyrimidinediamine [II-191]",466 nM
10,"5-Chloro-N4-[3-(N-tert-butylsulfonyl)phenyl]-N2-[3,4-trimethyl-4-methoxyphenyl]-2,4-pyrimidinediamine [I-16]",17700 nM
11,"5-Chloro-N4-[3-(N-tert-butylsulfonyl)phenyl]-N2-[3,5-dimethyl-4-(2-(1-morpholino)ethoxyphenyl]-2,4-pyrimidinediamine [I-21]",243 nM
12,"5-Chloro-N4-[4-(N-Cyclopropylsulfonylamino)methylphenyl]-N2-[3-methyl-4-[(1S,4S)-5-methyl-2,5-diazabicyclo[2.2.1]hept-2-yl]phenyl]-2,4-pyrimidinediamine [II-185]",110 nM
13,"5-Chloro-N4-[4-(N-cyclopropyl-N-acetylsulfonylamino)methylphenyl]-N2-[3,4-dimethyl-5-methoxyphenyl]-2,4-pyrimidinediamine [II-217]",233 nM
14,"5-Chloro-N4-[4-(N-cyclopropyl-N-propionylsulfonylamino)methylphenyl]-N2-[3,5-dimethyl-4-methoxyphenyl]-2,4-pyrimidinediamine [II-218]",248 nM
15,"5-Chloro-N4-[4-(N-cyclopropylsulfonylamino)methylphenyl]-N2-[2,4-dimethyl-5-chlorophenyl]-2,4-pyrimidinediamine [II-213]",2490 nM
16,"5-Chloro-N4-[4-(N-cyclopropylsulfonylamino)methylphenyl]-N2-[3,4-dimethyl-4-(2-(4-morpholinyl)ethoxy)phenyl]-2,4-pyrimidinediamine [II-160]",29.9 nM
17,"5-Chloro-N4-[4-(N-cyclopropylsulfonylamino)methylphenyl]-N2-[3-methyl-4-(N-methylpiperizin-4-yl)phenyl]-2,4-pyrimidinediamine [II-203]",1500 nM
18,"5-Chloro-N4-[4-(N-cyclopropylsulfonylamino)methylphenyl]-N2-[4-(N-ethylpiperizin-4-yl)phenyl]-2,4-pyrimidinediamine [II-205]",135 nM
19,"5-Chloro-N4-[4-(N-cyclopropylsulfonylamino)methylphenyl]-N2-[4-(N-methylpiperizin-4-yl)phenyl]-2,4-pyrimidinediamine [II-188]",224 nM

row,Molecule,IC50
1,"5-Chloro-N4-[4-(N-cyclopropylsulfonylamino)methylphenyl]-N2-[4-[N-(methansulfonyl)piperizin-4-ylphenyl]-2,4-pyrimidinediamine [II-207]",384 nM
2,"5-Chloro-N4-[4-(N-cyclopropylsulfonylamino)methylphenyl]-N2-[5-methyl-4-(N-methylpiperizin-4-yl)pyridin-3-yl]-2,4-pyrimidinediamine [II-225]",120 nM
3,"5-Chloro-N4-[4-[N-(Cyclopropylsulfonyl)-N′-((3-ethoxycarbonyl)propion-1-yl)amino]methylphenyl]-N2-(3,5-dimethyl-4-methoxyphenyl)-2,4-pyrimidinediamine [II-140]",251 nM
4,"5-Chloro-N4-[4-[N-cyclopropylsulfonyl)-N′-(3-(4-morpholine)propion-1-yl)amino]methylphenyl]-N2-(3,5-dimethyl-4-methoxyphenyl)-2,4-pyrimidinediamine [II-141]",73.9 nM
5,"5-Chloro-N4-[(4-(dimethylamino)sulfonylamino)methylphenyl]-N2-[3,4,5-trimethoxyphenyl)-2,4-pyrimidinediamine [II-95]",250 nM
6,"5-Chloro-N4[4-(N-cyclopropylsulfonylamino)ethylphenyl]-N2-[4-(6-methoxy-2-methyl-methoxy)phenyl]-2,4-pyrimidinediamine [II-50]",472 nM
7,"5-Methyl-N4-[4-(N-cyclopropylsulfonylamino)methylphenyl]-N2-[2,4-dimethyl-5-chlorophenyl]-2,4-pyrimidinediamine [II-212]",2200 nM
8,"5-Methyl-N4-[4-(N-cyclopropylsulfonylamino)methylphenyl]-N2-[4-(1-morpholinomethyl)phenyl]-2,4-pyrimidinediamine [II-222]",946 nM
9,COc1cc(Nc2ncc(C)c(Nc3ccc4c(c3)C(NS(=O)(=O)C3CC3)CC4)n2)cc(OC)c1OC (racemic) [V-3],1640 nM
10,"Cc1cnc(Nc2ccc(N3CCN(C)CC3)cc2)nc1Nc1ccc2c(c1)C(NS(=O)(=O)C1CC1)CC2 (racemic) [V-4, (+/−)-N4-[1-(Cyclopropylsulfonylamino)indan-6-yl]-5-methyl-N2-[4-(4-methyl-1-piperazinyl)phenyl]-2,4-pyrimidinediamine]",686 nM
11,"Cc1cnc(Nc2ccc(C3CCN(C)CC3)cc2)nc1Nc1ccc2c(c1)C(NS(=O)(=O)C1CC1)CC2 (racemic) [V-5, (+/−)-N4-[1-(Cyclopropylsulfonylamino)indan-6-yl]-5-methyl-N2-[4-(1-methyl-4-piperidinyl)pheny]-2,4-pyrimidinediamine]",999 nM
12,"Cc1cnc(Nc2ccc(C3=NCCN3)cc2)nc1Nc1ccc2c(c1)C(NS(=O)(=O)C1CC1)CC2 (racemic) [V-6, (+/−)-N4-[1-(Cyclopropylsulfonylamino)indan-6-yl]-N2-[4-(4,5-dihydro-1H-imidazol-2-yl)phenyl]-5-methyl-2,4-pyrimidinediamine]",1120 nM
13,"COc1c(C)cc(Nc2ncc(C)c(Nc3ccc4c(c3)C(NS(=O)(=O)C3CC3)CC4)n2)cc1C (racemic) [V-7, (+/−)-N4-[1-(Cyclopropylsulfonylamino)indan-6-yl]-N2-(3,5-dimethyl-4-methoxyphenyl)-5-methyl-2,4-pyrimidinediamine]",1600 nM
14,"COc1c(Cl)cc(Nc2ncc(C)c(Nc3ccc4c(c3)C(NS(=O)(=O)C3CC3)CC4)n2)cc1Cl (racemic) [V-8, (+/−)-N4-[1-(Cyclopropylsulfonylamino)indan-6-yl]-N2-(3,5-dichloro-4-methoxyphenyl)-5-methyl-2,4-pyrimidinediamine]",3030 nM
15,"Cc1cnc(Nc2ccc(N3CCN(C)CC3)cc2)nc1Nc1cccc(S(=O)(=O)N(C)C)c1 [I-14, N4-[(3-(1,1-Dimethylamino)sulfonyl)phenyl]-5-methyl-N2-[4-(4-methyl-1-piperazinyl)phenyl]-2,4-pyrimidinediamine]",225 nM
16,"COc1cc(Nc2ncc(Cl)c(Nc3cccc(S(=O)(=O)NC(C)(C)C)c3)n2)cc(OC)c1OC [I-15, 5-Chloro-N4-[3-(N-tert-butylsulfonyl)phenyl]-N2-[3,4,5-trimethoxyphenyl]-2,4-pyrimidinediamine]",225 nM
17,"CN1CCC(c2ccc(Nc3ncc(Cl)c(Nc4cccc(S(=O)(=O)NC(C)(C)C)c4)n3)cc2)CC1 [I-17, 5-Chloro-N4-[3-(N-tert-butylsulfonyl)phenyl]-N2-[4-(N-methylpiperidin-4-yl)phenyl]-2,4-pyrimidinediamine]",990 nM
18,"CN1CCN(c2ccc(Nc3nccc(Nc4cccc(S(=O)(=O)NC(C)(C)C)c4)n3)cc2)CC1 [I-19, N4-[3-(N-tert-butylsulfonyl)phenyl]-N2-[4-(4-methylpiperazine)-phenyl]-2,4-pyrimidinediamine]",603 nM
19,Cc1cnc(Nc2cc(C)c(OCCN3CCOCC3)c(C)c2)nc1Nc1cccc(S(=O)(=O)NC(C)(C)C)c1 [I-20],189 nM
